According to patent publication US20240300932A1, “N-PHENYLIMINE DERIVATIVE AND PREPARATION METHOD AND USE THEREOF” (Guizhou University, priority 2023, published 2024):

Legend:
Experiment in all cases: Post-emergence herbicidal activity test (stem and leaf spray, pot culture)
Type in all cases: in vivo
Conditions in all cases: 3 weeks after spraying
[1] = system: Setaria viridis
How it was run: (§1)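 Foliar spray, 2–3-leaf stage, 10/5/2.5 g/mu; acetone/Tween 80 + methyl oleate 1.5 L/ha. Greenhouse 3 wk, 20–30 °C. Score: fresh-wt control, grade 5 ≥85% … grade 0 <5%.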

[2] = system: Amaranthus retroflexus
How it was run: as §1

[3] = system: Portulaca oleracea
How it was run: as §1

[4] = system: Echinochloa crusgalli
How it was run: as §1

[5] = system: Abutilon theophrasti
How it was run: as §1

[6] = system: Trifoliumre pensL.
How it was run: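 Rates of 10, 5 and 2.5 g/mu were applied in a single spray-tower treatment to 2–3-leaf plants, thinned to 10 per pot. Formulation: acetone solution, Tween 80, 1.5 L/ha methyl oleate synergist. Weed response assessed after 3 further greenhouse weeks; mean of three experiments.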

What does the source list for O=C1C2=C(CCCC2)C(=O)N1c1cc(OCc2nc(-c3c(F)cccc3F)no2)c(Cl)cc1F [Compound A24]?
Post-emergence herbicidal activity, S. viridis (grade) ([1]; dosage 2.5 g/mu): 2 (Grade 2: the growth control rate is greater than or equal to 20% and less than 40%); Post-emergence herbicidal activity, S. viridis (grade) ([1]; dosage 5 g/mu): 3 (Grade 3: the growth control rate is greater than or equal to 40% and less than 60%); Post-emergence herbicidal activity, S. viridis (grade) ([1]; dosage 10 g/mu): 4 (Grade 4: the growth control rate is greater than or equal to 60% and less than 85%); Post-emergence herbicidal activity, A. retroflexus (grade) ([2]; dosage 2.5 g/mu): 5 (Grade 5: the growth control rate is greater than or equal to 85%); Post-emergence herbicidal activity, A. retroflexus (grade) ([2]; dosage 5 g/mu): 5 (Grade 5: the growth control rate is greater than or equal to 85%); Post-emergence herbicidal activity, A. retroflexus (grade) ([2]; dosage 10 g/mu): 5 (Grade 5: the growth control rate is greater than or equal to 85%); Post-emergence herbicidal activity, P. oleracea (grade) ([3]; dosage 2.5 g/mu): 4 (Grade 4: the growth control rate is greater than or equal to 60% and less than 85%); Post-emergence herbicidal activity, P. oleracea (grade) ([3]; dosage 5 g/mu): 5 (Grade 5: the growth control rate is greater than or equal to 85%); Post-emergence herbicidal activity, P. oleracea (grade) ([3]; dosage 10 g/mu): 5 (Grade 5: the growth control rate is greater than or equal to 85%); Post-emergence herbicidal activity, E. crusgalli (grade) ([4]; dosage 2.5 g/mu): 1 (Grade 1: the growth control rate is greater than or equal to 5% and less than 20%); Post-emergence herbicidal activity, E. crusgalli (grade) ([4]; dosage 5 g/mu): 2 (Grade 2: the growth control rate is greater than or equal to 20% and less than 40%); Post-emergence herbicidal activity, E. crusgalli (grade) ([4]; dosage 10 g/mu): 3 (Grade 3: the growth control rate is greater than or equal to 40% and less than 60%); Post-emergence herbicidal activity, A. theophrasti (grade) ([5]; dosage 2.5 g/mu): 5 (Grade 5: the growth control rate is greater than or equal to 85%); Post-emergence herbicidal activity, A. theophrasti (grade) ([5]; dosage 5 g/mu): 5 (Grade 5: the growth control rate is greater than or equal to 85%); Post-emergence herbicidal activity, A. theophrasti (grade) ([5]; dosage 10 g/mu): 5 (Grade 5: the growth control rate is greater than or equal to 85%); Post-emergence herbicidal activity, Trifoliumre pensL. (grade) ([6]; dosage 2.5 g/mu): 4 (Grade 4: the growth control rate is greater than or equal to 60% and less than 85%); Post-emergence herbicidal activity, Trifoliumre pensL. (grade) ([6]; dosage 5 g/mu): 5 (Grade 5: the growth control rate is greater than or equal to 85%); Post-emergence herbicidal activity, Trifoliumre pensL. (grade) ([6]; dosage 10 g/mu): 5 (Grade 5: the growth control rate is greater than or equal to 85%)
